Data on 1 compound can be found in patent US20100113473A1, “ARYL AMIDE COMPOUND AS AN ACETYL COENZYME A CARBOXYLASE INHIBITOR” (priority 2008, published 2010).

In assay [1] the test system is ApoB secretion from HepG2 cells. The experiment in a line: ApoB secretion from HepG2 cells. Format: cell-based. The conditions noted are these: Homo sapiens, 24 hours, ApoB in medium by ELISA. The method, then: HepG2 cells (American Type Culture Collection: Catalog No. #HB-8065) are maintained in Growth Media consisting of DMEM with 4.5 g/L glucose (Cellgro: Catalog No. #10-013-CV), supplemented with 10% fetal bovine serum (FBS) (Cellgro: Catalog No. #35-011-CV) and 100 U/mL each penicillin and streptomycin (Cellgro: Catalog No. #30-002-Cl). For the assay, cells are plated @ ˜10,000 cells/well in white, clear-bottom, 96-well plates (Costar: Catalog No. #3610) and incubated in a humidified 5% CO2 atmosphere at 37° C. The next day, Growth Media is replaced with RPMI 1640 without glucose (Cellgro: Catalog No. #10-043-CV), supplemented with 10% charcoal/dextran treated FBS (Hyclone: Catalog No. #SH30068.02) and 100 U/mL each penicillin and streptomycin (starvation media). The cells are maintained overnight in a humidified 5% CO2 atmosphere at 37° C. […] Twenty-four hours later, the growth medium is collected and assessed for ApoB content. […]
The samples are removed and the plate is washed again 3× with 200 μL PBST, then 100 μL of 1/10,000 HRP-conjugated, affinity-purified polyclonal sheep anti-human ApoB detection antibody (BioDesign International Product No. # K90086P) is added to each well and the plate is incubated for one hour at 37° C. […] The plate is read for one second in an Orion Microplate Luminometer®. […]
Background: ELISA stands for enzyme-linked immunosorbent assay.

In assay [2] the target is T1, Human ACC2 (amino acids 1685-2458) (Homo sapiens, UniProt O00763).
T1 construct: Human ACC2 (amino acids 1685-2458); 6His (N, cleaved yes); FLAG (N, cleaved yes); TEV cleavage site (N, cleaved yes); made in house; host or cells: Sf9 insect cells (baculovirus)
Description: ThermoFluor measurement of compound binding to ACC2 CT domain. The following applies: carboxyterminus (CT) domain, pH 7.0, read-out: ACC2 TF Kd. The protocol:
(§1) The 6His.FLAG.TEV Human ACC2 (amino acids 1685-2458) (Egea Biosciences, San Diego, Calif.) and 6His.FLAG. TEV. Human ACC1 (amino acids 1603-2383) (Egea Biosciences, San Diego, Calif.) genes were synthesized and subcloned into the pENTR11 vector. Transfection-grade DNA was purified using the QIAwell® Kit from Qiagen. The LR reaction was performed overnight and then transfected into Sf9 cells using a BaculoDirect® Baculovirus Expression System (Invitrogen). The P0 virus was collected 4 days post transfection and used for another round of virus amplification. The resulting P1 virus and cells were collected 3 days post-infection. […]
(§2) On-column cleavage of the histidine tag was performed by injecting 96 ug of TEV S219V protease/mg (of ACC2 CT. The product was incubated at 4° C. for 20 hours. The cleaved ACC2 was eluted in buffer A and loaded directly onto a HiLoad® 16/60 Superdex 200 column (GE Healthcare), preequilibrated with 25 mM Tris Buffer (at pH 8.0, 200 mM NaCl, 5% Glycerol, 5 mM DTT). Fractions containing ACC2 CT, assayed by SDS-PAGE, were pooled. For cocrystallization, the compound was added in a 1:2 molar ratio of protein:compound and incubated overnight at 4° C. The complex was concentrated to a final protein concentration of 7 mg/mL using an 30 kDa cut-off Ultrafree® membrane (Millipore, Billerica, Mass.) and was then ready for crystallization. […]
On the technique in general: DSF heats the sample and reads unfolding from a dye or from intrinsic fluorescence.

Assay [3] deals with T2, Human ACC1 (amino acids 1603-2383) (Homo sapiens, UniProt Q13085).
T2 construct: Human ACC1 (amino acids 1603-2383); 6His (N); FLAG (N); TEV cleavage site (N); made in house; host or cells: Sf9 insect cells (baculovirus)
Description: ThermoFluor measurement of compound binding to ACC1 CT domain. The conditions noted are these: carboxyterminus (CT) domain, pH 7.0, read-out: ACC1 TF Kd. The method, then:
as §1, §2

T1 sequence (O00763 1685-2458): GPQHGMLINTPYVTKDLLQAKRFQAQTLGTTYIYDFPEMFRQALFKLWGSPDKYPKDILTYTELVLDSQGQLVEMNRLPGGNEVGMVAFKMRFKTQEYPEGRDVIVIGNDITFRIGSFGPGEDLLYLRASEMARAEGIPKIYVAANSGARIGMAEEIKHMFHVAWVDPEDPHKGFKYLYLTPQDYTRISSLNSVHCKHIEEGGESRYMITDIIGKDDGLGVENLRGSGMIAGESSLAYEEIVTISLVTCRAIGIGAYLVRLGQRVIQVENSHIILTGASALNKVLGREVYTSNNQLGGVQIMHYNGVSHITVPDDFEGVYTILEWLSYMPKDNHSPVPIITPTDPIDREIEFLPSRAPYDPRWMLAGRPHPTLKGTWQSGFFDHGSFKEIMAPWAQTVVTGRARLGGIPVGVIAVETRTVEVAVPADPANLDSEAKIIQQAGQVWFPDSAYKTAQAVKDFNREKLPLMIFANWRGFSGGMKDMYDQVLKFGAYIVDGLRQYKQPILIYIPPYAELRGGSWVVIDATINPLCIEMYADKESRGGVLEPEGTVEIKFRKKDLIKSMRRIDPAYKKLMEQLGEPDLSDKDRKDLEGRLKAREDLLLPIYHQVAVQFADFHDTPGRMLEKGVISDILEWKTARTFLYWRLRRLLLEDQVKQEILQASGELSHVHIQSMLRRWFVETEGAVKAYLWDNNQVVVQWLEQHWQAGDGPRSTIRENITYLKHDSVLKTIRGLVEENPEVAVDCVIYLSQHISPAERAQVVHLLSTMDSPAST

As for `Cc1ccc2nc(-c3ccncc3)cc(C(=O)N3CCN(Cc4ccc5c(c4)OCCO5)CC3)c2c1` [Cpd 1, [4-(2,3-Dihydro-benzo[1,4]dioxin-6-ylmethyl)-piperazin-1-yl]-(6-methyl-2-pyridin-4-yl-quinolin-4-yl)methanone], the IC50 (as a rule, the midpoint of a concentration-inhibition curve) in assay [1] stood at 8000 nM. Also, the figures for the Kd in assay [2] and in assay [3] were 400 nM and 970 nM, respectively.
